Laboratory results taken from patent publication US6147076A, “Analogues of N-acetylardeemin, method of preparation and uses thereof” (priority 1996, dated 2000).
Read-outs that look alike come from different tables or passages of the source.

Columns and labels:
DC-3F hamster lung cells [1] = assay: Cytotoxicity toward DC-3F hamster lung cells
CCRF-CEM/VBL100 cells [2] = settings: ccrf-cem/vbl100 cells
DC-3F hamster lung cells [3] = settings: dc-3f cells
CCRF-CEM cells [4] = assay: Cytotoxicity / growth inhibition of CCRF-CEM leukemic cells
CCRF-CEM/VM-1 cells = assay: Cytotoxicity toward VM-26-resistant CCRF-CEM/VM-1 cells (mutated Topo II gene); assay type: cell-based, human
CCRF-CEM cells [5] = tested on: CCRF-CEM cells
DC-3F/ADII cells [6] = tested on: DC-3F/ADII cells
CCRF-CEM/VLB-100 cells = assay: Intracellular accumulation of [3H]vinblastine in CCRF-CEM/VLB-100 cells; assay type: cell-based, human; settings: 30 μM
Protocol: (§1) *Cells were preloaded with [^3 H]
(§2) times (or without wash) with 100 ml cold medium to remove extracellular
(§3) with or without a reverse prenyl compound or an MDRreversing agent. Cells
(§4) were then separated from radioactive medium by microfuge oillayer method.
(§5) Extracellular space counts carried down # by cells (^3 HInulin space
(§6) were subtracted from the total radioactive counts.

CCRF-CEM cells [7] = assay: Intracellular accumulation of [3H]vinblastine in CCRF-CEM cells; assay type: cell-based, human; settings: 30 μM
Protocol: as §1, §2, §3, §4, §5, §6

CCRF-CEM/VBL100 cells [8] = assay: cells; settings: Homo sapiens
DC-3F/ADX cells = assay: Cytotoxicity toward DC-3F/ADX cells; assay type: cell-based, hamster
DC-3F/ADII cells [9] = assay: cells; settings: Mesocricetus auratus, DC3F, read-out: IC50 (B)
[10] = Table 5A, CCRF-CEM/VLB, * collaterally sensitive vs parent
[11] = read-out: IC50 of reversing agent, Table 6B, CCRF-CEM/VBL
[12] = Homo sapiens, Table 5A, single determinations
[13] = Homo sapiens, read-out: IC50 of reversing agent, Table 6B, CCRF-CEM
[14] = Homo sapiens, CCRF-CEM, Table 5A, CCRF-CEM/VM-1, read-out: IC50
[15] = read-out: IC50, mean ± spread, Table 5A, CCRF-CEM/VLB, mean
[16] = Homo sapiens, read-out: IC50, mean ± spread, Table 5A, CCRF-CEM, mean
[17] = Table 5A, single determinations
[18] = Homo sapiens, CCRF-CEM, Table 6B, CCRF-CEM/VM-1, read-out: IC50 of reversing agent

Row | SMILES | [3H]vinblastine accumulation (CCRF-CEM/VLB-100 cells; washed) | [3H]vinblastine accumulation (CCRF-CEM/VLB-100 cells; without wash) | [3H]vinblastine accumulation (CCRF-CEM cells [7]; washed) | [3H]vinblastine accumulation (CCRF-CEM cells [7]; without wash) | IC50 (CCRF-CEM/VBL100 cells [8]; [10]) | IC50 (CCRF-CEM/VBL100 cells [8]; [11]) | IC50 (CCRF-CEM cells [4]; [12]) | IC50 (CCRF-CEM cells [4]; [13]) | IC50 (CCRF-CEM/VM-1 cells; [14]) | IC50 (CCRF-CEM cells [4]; [16]) | also measured
1 | C=CCC12CC3c4nc5ccccc5c(=O)n4C(C)C(=O)N3C1N(C(C)=O)c1ccccc12 (stereo not drawn) [5-N-Ac"Allyl" ardeemin, "Allyl" 5-N-acetylardeemin] | 6.18 fmole/10^3 cells | 27.21 fmole/10^3 cells | 28.88 fmole/10^3 cells | 33.35 fmole/10^3 cells | – | – | – | – | – | – | IC50 (DC-3F hamster lung cells [1]; Mesocricetus auratus, DC3F, relative cytotoxicity, DC-3F): 17.4 µM; IC50 (CCRF-CEM/VBL100 cells [2]): 35.8 µM; IC90 (CCRF-CEM/VBL100 cells [2]): 81.1 µM; IC80 (DC-3F hamster lung cells [3]): 17.4 µM; IC90 (DC-3F hamster lung cells [3]): 56.2 µM; IC50 (CCRF-CEM cells [4]; Homo sapiens, human leukemic CCRF-CEM cells): 53.3 µM; IC50 (CCRF-CEM/VM-1 cells; ccrf-cem/vm-1 cells): 45 µM; IC90 (CCRF-CEM/VM-1 cells; ccrf-cem/vm-1 cells): 916 µM; IC50 (CCRF-CEM cells [5]): 53.3 µM; IC90 (CCRF-CEM cells [5]): 888 µM; IC50 (DC-3F/ADII cells [6]; dc-3f/adii cells): 5.21 µM; IC90 (DC-3F/ADII cells [6]; dc-3f/adii cells): 34.7 µM
2 | C=CC(C)(C)C12CC3c4nc5ccccc5c(=O)n4C(C)C(=O)N3C1N(C(=O)C(F)(F)F)c1ccccc12 (stereo not drawn) [5N F3 -Ac-Ard 3F, 5N-Tri-F Acetyl Ardeemin] | 7.28 fmole/10^3 cells | 32.68 fmole/10^3 cells | 28.44 fmole/10^3 cells | 34.01 fmole/10^3 cells | 17.2 µM | 17.2 µM | 37.5 µM | 37.6 µM | 52.6 µM | – | –
3 | C=CC(C)(C)C12CC3C(=O)NCC(=O)N3C1N(C(C)=O)c1ccccc12 (stereo not drawn) [5N-Ac-8-desMe-DKP, 5N-acetyl diketopiperazine] | – | – | – | – | – | – | 21.4 µM | – | – | 22.1 ± 0.7 µM | IC50 (CCRF-CEM/VBL100 cells [8]; [15]): 19.9 ± 13 µM; IC50 (CCRF-CEM cells [4]; [17]): 22.7 µM; IC50 (CCRF-CEM/VM-1 cells; Homo sapiens, CCRF-CEM): 35.8 µM
4 | C=CC(C)(C)C12CC3C(=O)NC(C)C(=O)N3C1N(C(C)=O)c1ccccc12 (stereo not drawn) [5N-Ac-DKP 14(E), N-acetyldiketopiperazine] | 3.59 fmole/10^3 cells | 12.88 fmole/10^3 cells | 29.54 fmole/10^3 cells | 35.08 fmole/10^3 cells | – | – | – | – | 32.4 µM | 397 ± 171 µM | IC50 (CCRF-CEM/VBL100 cells [8]; Table 6, CCRF-CEM/VBL): 541 µM; IC50 (CCRF-CEM/VBL100 cells [8]; [15]): 344 ± 197 µM; IC50 (CCRF-CEM cells [4]; Homo sapiens, Table 6, CCRF-CEM): 225 µM
5 | C=CC(C)(C)C12CC3C(=O)NC(C)C(=O)N3C1N(C(=O)C(F)(F)F)c1ccccc12 (stereo not drawn) [5N-F3 -Ac-DKP 14F(E), 5N-trifluoroacetyl diketopiperazine] | 5.77 fmole/10^3 cells | 23.34 fmole/10^3 cells | 28.75 fmole/10^3 cells | 33.34 fmole/10^3 cells | 24.6 µM | 24.8 µM | 32.8 µM | 32.8 µM | 41 µM | 32.2 ± 0.7 µM | IC50 (CCRF-CEM cells [4]; [17]): 31.5 µM; IC50 (CCRF-CEM/VM-1 cells; [18]): 40.9 µM
6 | C=CC(C)(C)C12CC3C(=O)NCC(=O)N3C1N(C=O)c1ccccc12 (stereo not drawn) [5N-formyl-8-desMe-DKP] | – | – | – | – | 372 µM | – | 200 µM | – | – | – | –
7 | C=CC(C)(C)C12CC3c4nc5ccccc5c(=O)n4CC(=O)N3C1Nc1ccccc12 (stereo not drawn) [8-Desmethyl-Ardeemin] | – | – | – | – | – | 18.8 µM | – | 14.3 µM | – | – | IC50 (DC-3F/ADX cells; DC3F/ADX, DC-3F/ADX): 4.7 µM; (C)/(A) (DC-3F/ADX cells; IC50 ratio DC-3F/ADX to DC-3F, * collaterally sensitive): 0.49 X; IC50 (DC-3F hamster lung cells [1]; Mesocricetus auratus, DC3F, read-out: IC50 (A), mean ± spread, mean of the determinations): 9.58 ± 1.29 µM; IC50 (DC-3F hamster lung cells [1]; Mesocricetus auratus, DC3F, read-out: IC50 (A), single determinations): 10.9 µM; IC50 (DC-3F hamster lung cells [1]; read-out: IC50 (A), single determinations): 8.29 µM; IC50 (DC-3F/ADII cells [9]): 26.5 µM; IC50 (CCRF-CEM/VM-1 cells; [18]): 18.1 µM; (B)/(A) (DC-3F/ADII cells [6]; IC50 ratio DC-3F/ADII to DC-3F, * collaterally sensitive): 3.5 X
